Patent US9402839B2, “Selective targeting agents for mitochondria” (University of Pittsburgh—Of the Commonwealth System of …, priority 2006, dated 2016)
Non-standard residues stand in square brackets, D forms with d. Residues, ends and D or L forms follow the SMILES beside them. *: point of attachment. Orn = NCCC[C@H](N)C(=O)O; Cbz = O=C(OCc1ccccc1)*; Boc = CC(C)(C)OC(=O)*; X1 = CC1CCN=C(N*)S1

What was measured:
[1] = tested on: 32D c13 hemopoietic cells; test: Mass spectrometry analysis of mitochondria isolated from incubated 32D c13 cells; assay type: cell-based; details: 100 μM, two hours at 37° C.
Protocol: An unconjugated and conjugated NOS antagonist, (AMT, 100 μM) and an unconjugated and conjugated nitroxide derivative (4-amino-TEMPO, 100 μM) were incubated for two hours at 37° C. with 32D c13 hemopoietic cells.
Following incubation, the cells were lysed and the mitochondria isolated for a mass spectrometry analysis where compounds isolated from mitochondria were identified as Na+ adducts. […] Thus, the targeting peptides successfully direct a NOS antagonist and a nitroxide to the mitochondria.

[2] = tested on: irradiated uroepithelial cells; test: NO and peroxynitrite production in irradiated uroepithelial cells (microsensor measurements); assay type: cell-based
Protocol: Further physiological studies were conducted to determine the effects of peptide-targeted AMT and 4-amino-TEMPO on NO and peroxynitrite production in irradiated uroepithelial cells. The cells were cultured in an 8-well slide chamber for 3 days and then microsensor measurements were taken 24 hours after irradiation.
In cells treated with high-dose conjugated 4-amin-TEMPO (100 μM), peroxynitrite production was decreased by approximately 4-fold.

[3] = tested on: mouse embryonic cells (MEC); assay type: cell-based; details: 10 μM; with and without K3Fe(CN)6
Protocol: Electron paramagnetic resonance (“EPR”) spectroscopy was used to monitor the cellular delivery of compounds 5a and 5b shown in FIG. 2 in mouse embryonic cells (“MEC”).
The following conditions were used during the EPR-based analysis of the integration and reduction of nitroxide Gramicidin S-peptidyl conjugates in MECs. The MECs at a concentration of 10 million MECs per mL were incubated with 10 μM of 4-AT and compound 5a, respectively. Recovered nitroxide radicals in whole cells, mitochondria, and cytosol fractions were resuspended in phosphate buffer saline (“PBS”) in the presence and absence, respectively, of 2 μM K3Fe(CN)6.

[4] = tested on: MECs; test: Determination of intracellular superoxide radicals (DHE oxidation, flow cytometry) in ActD-treated MECs; assay type: cell-based, mouse; details: 10 μM pretreatment, ActD 100 ng/mL; nearly two-fold ActD-induced increase
Protocol: Determination of intracellular superoxide radicals Oxidation-dependent fluorogenic dye, dihydroethidium (“DHE”, Molecular Probes) was used to evaluate intracellular production of superoxide radicals. DHE is cell permeable and, in the presence of superoxide, is oxidized to fluorescent ethidium which intercalates into DNA. The fluorescence of ethidium was measured using a FACscan (BECTON-DICKINSON, Rutherford, N.J.) flow cytometer, equipped with a 488-nm argon ion laser and supplied with the Cell Quest software. Mean fluorescence intensity from 10,000 cells were acquired using a 585-nm bandpass filter (FL-2 channel).

[5] = tested on: MECs; test: ActD-induced apoptosis in MECs (PS externalization, caspase-3 activation, DNA fragmentation); assay type: cell-based, mouse; details: 10 μM / low concentrations, ActD 100 ng/mL
Description: Cells that annexin V-positive and PI-negative were considered apoptotic.

[6] = tested on: rat ileal mucosal permeability; test: Intestinal mucosal permeability assay (FD4 clearance, everted gut sacs) after pressure-controlled hemorrhagic shock; assay type: in vivo; details: for protection against hemorrhagic shock-induced ileal mucosal hyperpermeability: intraluminal, 0.1-100 μM, 2 h shock
Protocol: Intestinal mucosal permeability assay. Animals were allowed access to water but not food for 24 h prior to the experiment in order to decrease the volume of intestinal contents. The rats were instrumented as described above.
A midline laparotomy was performed and the small intestine was exteriorized from the duodenojejunal junction to the ileocecal valve. A small incision was made on the antimesenteric aspect of the proximal small intestine and saline solution (1.5 ml) was injected. The bowel was ligated proximally and distally to the incision with 4-0 silk (LOOK, Reading, Pa.).
The small intestine was compressed gently in aboral direction along its length to displace intestinal contents into the colon. Starting 5 cm from the ileocecal valve, the ileum was partitioned into six contiguous water-tight segments. Each segment was 3 cm long and was bounded proximally and distally by constricting circumferential 4-0 silk sutures. Care was taken to ensure that the vascular supply to intestine was not compromised, and each segment was well-perfused.
Two randomly selected segments in each rat were injected with 0.3 ml of vehicle and served as “no treatment” controls. In order to fill the segments, a small incision was made and the solution was injected using a Teflon catheter (ABBOCATH 16Ga, ABBOTT LABORATORIES).
The remaining four other segments were injected with solutions containing either 4-hydroxy-2,2,6,6-tetramethylpiperidine-N-oxyl (TEMPOL) or one of the Gramicidin S-based compounds. Four different final concentrations of TEMPOL in normal saline were evaluated: 0.1, 1, 5 and 20 mM. The hemigramicidin-based compounds were dissolved in a mixture of dimethylsulfoxide (DMSO) and normal saline (1:99 v/v) and injected at final concentrations of 0.1, 1, 10 or 100 μM.
After the segments were loaded with saline or the test compounds, the bowel was replaced inside the peritoneal cavity and the abdominal incision was temporarily closed using Backhaus forceps.
After a 5 min stabilization period, hemorrhagic shock was induced by withdrawing blood via the jugular catheter. MAP was maintained at 30±3 mm Hg for 2 hours. The shed blood was re-infused as needed to maintain MAP within the desired range.
After 2 h of shock, the animals were euthanized with an intracardiac KCl bolus injection. The ileum was rapidly excised from the ileocecal valve to the most proximal gut segment. The tips of each segment were discarded. In order to assay caspases 3 and 7 activity and phospholipids peroxidation, mucosa samples were collected from gut segments immediately after hemorrhage and stored at −80° C. For permeability measurements, each segment was converted into an everted gut sac, as previously described by Wattanasirichaigoon et al., see Wattanasirichaigoon, S. et al., Effect of mesenteric ischemia and reperfusion or hemorrhagic shock on intestinal mucosal permeability and ATP content in rats, SHOCK, 12:127-133 (1999).
Briefly, as per the Wattanasirichaigoon protocol referenced above, the sacs were prepared in ice-cold modified Krebs-Henseleit bicarbonate buffer (“KHBB”), pH 7.4. One end of the gut segment was ligated with a 4-0 silk suture; the segment was then everted onto a thin plastic rod. The resulting gut sac was mounted on a Teflon catheter (Abbocath 16GA, Abbot Laboratories) connected to a 3 ml plastic syringe containing 1.5 ml of KHBB. The sac was suspended in a beaker containing KHBB plus fluorescein-isothiocyanate labeled dextran (average molecular mass 4 kDa; FD4; 0.1 mg/ml). This solution was maintained at 37° C., and oxygenated by bubbling with a gas mixture (O2 95%/CO2 5%). After 30 min, the fluid within the gut sac was collected. The samples were cleared by centrifugation at 2000 g for 5 min.
Fluorescence of FD4 in the solution inside the beaker and within each gut sac was measured using a fluorescence spectrophotometer (LS-50, PERKIN-ELMER, Palo Alto, Calif.) at an excitation wavelength of 492 nm and an emission wavelength of 515 nm. […]

[7] = tested on: mitochondrial membrane; test: Quantitative mass spectrometry of AMT peptide conjugates permeating the mitochondrial membrane; assay type: cell-based; details: for Fmole/l0M mitochondrial protein: relative quantification of conjugate concentration at the target site
Protocol: Quantitative mass spectrometry studies were used to compare the effectiveness of several AMT peptide conjugates in permeating the mitochondrial membrane, specifically XJB-5-234, XJB-5-133, XJB-5-241, and XJB-5-127. The Fmole/10 μM mitochondrial protein ratio provides a relative quantification of conjugate concentration at the target site.

## CC1CCN=C(N)S1 (centres unmarked) [AMT, 2-amino-6-methyl-thiazine]
[1]
  permeation of the mitochondrial membrane (mass spectrometry of isolated mitochondria): do not enter the mitochondria membrane in substantial quantities
[2]
  radioprotectant effectiveness compared with 4-amino-TEMPO: more effective radioprotectant
[2]; 10 μM, 24 hours after irradiation
  NO induced peroxynitrite formation: comparable amount of peroxynitrite

## CC1(C)CC(N)CC(C)(C)N1[O] [4-AT, 4-amino-TEMPO, reference compound]
[3]
  integration and one-electron reduction in MECs (EPR signal increase upon ferricyanide): did not effectively permeate cells or the mitochondria
[4]
  intracellular superoxide generation in MECs: no effect
[5]
  protection of MECs against ActD-induced apoptosis: afforded no protection
[1]
  permeation of the mitochondrial membrane (mass spectrometry of isolated mitochondria): only permeate the mitochondrial membrane with the assistance of the attached GS-derived targeting sequence
[2]; 100 μM, 24 hours after irradiation
  capsaicin-evoked peroxynitrite formation compared with untreated irradiated cells: comparable amount of peroxynitrite

## CC1(C)CC(O)CC(C)(C)N1[O] [TEMPOL, 4-hydroxy-2,2,6,6-tetramethylpiperidine-N-oxyl, reference compound]
[6]; intraluminal, 0.1, 1, 5 and 20 mM tested
  concentrations in the gut lumen that ameliorated hemorrhagic shock-induced ileal mucosal hyperpermeability: > 1 mM

## C/C(=C\[C@H](Cc1ccccc1)C(=O)N1CCC[C@H]1C(=O)N[C@H](C(=O)N[C@@H](CCCNC(=O)OCc1ccccc1)C(=O)NC1=NCCC(C)S1)C(C)C)[C@H](CC(C)C)NC(=O)OC(C)(C)C (stereo partly drawn) [XJB-5-241, Boc-Leu-ψ[(E)-C(CH3)═CH]-^DPhe-Pro-Val-Orn(Cbz)-AMT]
[7]; among XJB-5-234, XJB-5-133, XJB-5-241 and XJB-5-127
  ranking of conjugates in permeating the mitochondrial membrane: most efficacious conjugate
[7]
  Fmole/l0M mitochondrial protein: 103.3 Fmole/l0M mitochondrial protein

## CC(C)C[C@H](NC(=O)OC(C)(C)C)C(=O)N[C@H](Cc1ccccc1)C(=O)N1CCC[C@H]1C(=O)N[C@H](C(=O)N[C@@H](CCCNC(=O)OCc1ccccc1)C(=O)NC1=NCCC(C)S1)C(C)C (stereo partly drawn) [XJB-5-127, Boc-Leu-^DPhe-Pro-Val-Orn(Cbz)-AMT] (Boc-L[dF]PV[Orn](Cbz)-X1)
[6]
  protection against hemorrhagic shock-induced ileal mucosal hyperpermeability: Ineffective
[7]
  biological activity compared with XJB-5-241: less biologically active

## CC(C)C[C@@H](/C=C/[C@H](Cc1ccccc1)C(=O)N1CCC[C@H]1C(=O)N[C@H](C(=O)N[C@@H](CCCNC(=O)OCc1ccccc1)C(=O)NC1=NCCC(C)S1)C(C)C)NC(=O)OC(C)(C)C (stereo partly drawn) [XJB-5-133, Boc-Leu-ψ[(E)-CH═CH]-^DPhe-Pro-Val-Orn(Cbz)-AMT]
[6]
  protection against hemorrhagic shock-induced ileal mucosal hyperpermeability: did not afford protection
[7]
  biological activity compared with XJB-5-241: less biologically active
  Fmole/l0M mitochondrial protein: 89.8 Fmole/l0M mitochondrial protein

## CC(C)C[C@@H](/C=C/[C@H](Cc1ccccc1)C(=O)NC1=NCCC(C)S1)NC(=O)OC(C)(C)C (stereo partly drawn) [XJB-5-234, Boc-Leu-ψ[(E)-CH═CH]-^DPhe-AMT]
[7]
  Fmole/l0M mitochondrial protein: 1.45 Fmole/l0M mitochondrial protein
